Reference: patent publication US4159328A, “Tetrahydro-1,3,5-thiadiazin-4-one derivative” (Nihon Nohyaku Co., Ltd., priority 1977, dated 1979)
Like-named read-outs stand apart in the source and are kept apart here.

What was measured:
Assay type in all cases: in vivo
[1] = system: larvae of brown planthopper (Nilaparvata lugens Stahl); test: Test Example 1: insecticidal activity against larvae of brown planthopper; conditions: 120 h, third-instar larvae, 25° C., 5 days after treatment
Method: Insecticidal activity against larvae of brown planthopper (Nilaparvata lugens Stahl).
(§1) Testing method: Five rice seedlings of the 1.5 leaf age were dipped in a test composition of 400 ppm concentration for 30 seconds. After air-drying, the seedlings were placed in a glass tube containing 1 ml of water and infested with five third-instar larvae of brown planthopper. The glass tube was left standing in a constant temperature cabinet at 25° C. and 5 or 7 days after the treatment, dead-and-survival was observed. Mortality was calculated from the results of 3-replication test.

[2] = system: larvae of white-backed planthopper (Sogatella furcifera Horvath); test: Test Example 2: insecticidal activity against larvae of white-backed planthopper; conditions: 168 h, 400 ppm, first-instar larvae, 25° C., seven days after treatment, read-out: Mortality
Method: Insecticidal activity against larvae of white-backed planthopper (Sogatella furcifera Horvath).
as §1, with “first-instar” for “third-instar”, “white-backed” for “brown”, “seven” for “5 or 7”

[3] = system: larvae of green rice leafhopper (Nephotettix cincticeps Uhler); test: Test Example 5: activity against larvae of green rice leafhopper; conditions: 168 h, 400 ppm, second-instar larvae, 25° C., seven days after treatment, read-out: Mortality
Method: Activity against larvae of green rice leafhopper (Nephotettix cincticeps Uhler).
Testing method: Five rice seedlings of the 1.5 leaf age were dipped in a test composition of 400 ppm concentration for 30 seconds. After air-drying, the seedlings were placed in a glass tube containing 1 ml of water and infested with five second-instar larvae of green rice leafhopper. The glass tube was left standing in a constant temperature cabinet at 25° C. Seven days after the treatment, dead-and-survivalwas inspected to calculate the mortality (3-replication test).

[4] = system: larvae of house mosquito (Culex pipiens pallens Coquillett); test: Test Example 6: insecticidal activity to larvae of house mosquito; conditions: 120 h
Method: Insecticidal activity to larvae of house mosquito (Culex pipiens pallens Coquillett).
Test method: In a 200-ml beaker, was placed together with a feed 100 ml of a test composition diluted with deionized water to 10 ppm concentration. The test composition was infested with 20 first-instar larvae of house mosquito and the beaker was covered with a sheet of Japanese paper. The beaker was kept in a constant temperature cabinet at 25° C. Five days after the treatment, the dead-and-survival was inspected to calculate the mortality.

[5] = system: larvae of 28-spotted lady beetle (Epilachna vigintioctopunctana Fabricius); test: Test Example 8: insecticidal activity against larvae of 28-spotted lady beetle; conditions: 120 h
Method: Insecticidal activity against larvae of 28-spotted lady beetle (Epilachna vigintioctopunctana Fabricius).
Testing method: Leaflets of tomato grown in a greenhouse were dipped in a test composition of 100 ppm concentration for 30 seconds and after that the leaflets were dried by air. In a Petri dish covered on the bottom with a piece of filter paper, were introduced 1 ml of water and three treated tomato leaflets. After having been infested with seven second-instar larvae of 28-spotted lady beetle, the Petri dish was left standing in a constant temperature cabinet at 25° C. Five days after the treatment, the dead-and-survival was inspected to calculate the mortality (2-replication test).

[6] = system: two-spotted spider mite (Tetranychus urticae Koch); test: Test Example 3: activity to two-spotted spider mite; conditions: 120 h, 1,000 ppm, 5 days after treatment
From the text: Activity to two-spotted spider mite (Tetranychus urticae Koch).
Testing method: Two-spotted spider mites were set free on the pot-planted soybean in a greenhouse. On the next day, a test composition of 1,000 ppm concentration was sprayed over the soybean by means of a spray gun. Two days or five days after the treatment, dead-and-survival was inspected to calculate the mortality.

[7] = 100 ppm, second-instar larvae, 25° C., five days, read-out: Mortality

SMILES	mortality at 400 ppm [1]	mortality at 400 ppm [2]	mortality at 400 ppm [3]	mortality at 10 ppm [4]	mortality at 100 ppm [5]	mortality at 1000 ppm [6]	mortality at 100 ppm [5, 7]
Cc1cccc(N2CSC(=NC(C)C)N(C(C)C)C2=O)c1 [Compound 325]	100%	100%	100%	100%	100%		
CCCN1C(=O)N(c2ccc(C)cc2)CSC1=NC(C)C [Compound 314]	100%			100%	100%	100%	
Cc1ccccc1N1CSC(=NC(C)(C)C)N(C(C)C)C1=O [Compound 302]	100%	100%	100%	100%	80%	70%	
CC(C)N1C(=O)N(c2ccc(Cl)cc2)CSC1=NC(C)(C)C [Compound 196, 2-t-Butylimino-3-isopropyl-5-(p-chlorophenyl)-tetrahydro-1,3,5-thiadiazin-4-one]	100%	90%				100%	
CC(C)N=C1SCN(c2ccc(Cl)cc2)C(=O)N1C(C)C [Compound 194]	100%		100%	80%		100%	
CCN=C1SCN(c2cc(Cl)cc(Cl)c2)C(=O)N1CC [Compound 404]					90%	100%	
CCC(C)N1C(=O)N(c2cccc(C)c2)CSC1=NC(C)(C)C (centres unmarked) [Compound 328]	90%	100%	100%	100%	100%	100%	
CC(C)N1C(=O)N(c2ccc(Cl)cc2Cl)CSC1=NC(C)(C)C [Compound 399]	100%				100%	80%	
CCC(C)N=C1SCN(c2cc(Cl)cc(Cl)c2)C(=O)N1C(C)CC (centres unmarked) [Compound 411]	60%				100%	100%	
CCC(C)N=C1SCN(c2ccc(F)cc2)C(=O)N1C(C)CC (centres unmarked) [Compound 283]	100%	100%	90%	70%	90%	70%	
CCC(C)N=C1SCN(c2ccc(Cl)cc2)C(=O)N1C(C)CC (centres unmarked) [Compound 197]	100%	90%		100%		80%	
COc1ccc(N2CSC(=NC(C)(C)C)N(C(C)C)C2=O)cc1 [Compound 353, 2-t-Butylimino-3-isopropyl-5-(p-methoxyphenyl)tetrahydro-1,3,5-thiadiazin-4-one]	100%	100%	100%	100%	100%	100%	
CCCCN=C1SCN(c2ccccc2)C(=O)N1CCCC [Compound 146]				100%	100%		
CCCN1C(=O)N(c2cc(Cl)cc(Cl)c2)CSC1=NC(C)C [Compound 405]					90%		
CCc1cccc(CC)c1N1CSC(=NC(C)C)N(C(C)C)C1=O [Compound 395, 2-Isopropylimino-3-isopropyl-5-(2,6-diethylphenyl)-tetrahydro-1,3,5-thiadiazin-4-one]	100%	90%	100%	100%		80%	
CCC(C)N=C1SCN(c2ccccc2Cl)C(=O)N1C(C)CC (centres unmarked) [Compound 248]	100%		100%	90%		100%	
CCC(C)N1C(=O)N(c2ccccc2C)CSC1=NC(C)(C)C (centres unmarked) [Compound 303]	100%	100%	100%		100%	80%	
CC(C)N=C1SCN(c2cccc(Cl)c2)C(=O)N1C(C)C [Compound 220]	100%	100%	100%	80%	100%		
C=CCN1C(=O)N(c2cc(Cl)cc(Cl)c2)CSC1=NC(C)C [Compound 412, 2-Isopropylimino-3-allyl-5-(3,5-dichlorophenyl)-tetrahydro-1,3,5-thiadiazin-4-one]	100%				100%	100%	
CN=C1SCN(c2ccc(Br)cc2)C(=O)N1C [Compound 291]	100%	100%	100%	70%	100%	100%	
CCC(C)N1C(=O)N(c2cccc(Cl)c2)CSC1=NC(C)(C)C (centres unmarked) [Compound 225, 2-t-Butylimino-3-s-butyl-5-(m-chlorophenyl)-tetrahydro-1,3,5-thiadiazin-4-one]	100%	100%	90%	100%		100%	
CCC(C)N=C1SCN(c2ccccc2)C(=O)N1c1ccccc1 (centres unmarked) [Compound 163, 2-s-Butylimino-3,5-diphenyl-tetrahydro-1,3,5-thiadiazin-4-one]							60%
CC(C)N1C(=O)N(c2ccc(F)cc2)CSC1=NC(C)(C)C [Compound 282, 2-t-butylimino-3-isopropyl 5-(p-fluorophenyl)-tetrahydro-1,3,5-thiadiazin-4-one]	100%	100%	100%	90%		80%	
CC(C)N=C1SCN(c2ccccc2Cl)C(=O)N1C(C)C [Compound 244, 2-Isopropylimino-3-isopropyl-5-(o-chlorophenyl)-tetrahydro-1,3,5-thiadiazin-4-one]	100%	100%	100%	100%		70%	
CC(C)N1C(=O)N(c2ccc([N+](=O)[O-])cc2)CSC1=NC(C)(C)C [Compound 364]	100%				80%	60%	
COc1ccc(N2CSC(=NC(C)C)N(C(C)C)C2=O)cc1 [Compound 352]	100%	100%	100%	100%	100%		
CC(C)N=C1SCN(c2ccc(Cl)c(Cl)c2)C(=O)N1Cc1ccccc1 [Compound 422]	60%				90%	100%	
CCN1C(=O)N(c2ccc(Cl)c(Cl)c2)CSC1=NC(C)(C)C [Compound 418]	60%					70%	70%
CC(C)N=C1SCN(c2ccc(Cl)cc2Cl)C(=O)N1C(C)C [Compound 398]	100%				80%	80%	
CCCCN1C(=O)N(c2ccccc2)CSC1=NC(C)C [Compound 147]	100%			100%	100%		
